Experimental findings from patent publication US20180203025A1, “HDL THERAPY MARKERS” (Cerenis Therapeutics Holding SA, priority 2014, published 2018) are described below.

For assay [1], the system named is carotid artery and aorta vessel wall. Description: SAMBA trial: mean vessel wall thickness by 3Tesla MRI. Type of assay: in vivo, human. How it is done: The patients were initially treated in an intense “induction phase,” receiving 9 doses of CER-001 at a dose of 8 mg/kg over 4 weeks. After this induction phase, the study subjects were re-evaluated with lipoprotein profiles and an MRI scan. Subsequently, the study subjects continued to be treated once every two weeks in a “maintenance phase” for 6 months' total therapy. At that point the lipoprotein profiles and MRI scans were repeated.
FIG. 70 and FIG. 71 show the mean carotic and aortic vessel wall thickness, respectively, on a patient-by-patient basis after one month of treatment. Mean vessel wall thickness of the carotid artery decreased by a mean of −6.4% after one month of induction therapy, and mean vessel wall thickness of the aorta decreased by a mean of −4.6% after one month of induction therapy. The homozygous ApoA-I deficiency patient experienced a −17% regression of carotid mean vessel wall thickness. […] Mean vessel wall thickness was determined by 3Tesla MRI.

In assay [2] the test system is ABCA1 mRNA in HepG2 (human hepatocytes). Description: ABCA1 mRNA in HepG2 hepatocytes. Type of assay: cell-based. Particulars: Study K, 0.25, 25 and 250 μg/mL, 6 hours. How it is done: HepG2 (human hepatocytes) and Hepa1-6 (mouse hepatocytes) were seeded on 6 well plates (300,000 cells/well) in DMEM 10% FCS. […] Gene expression was assayed using the protocols described in Sections 8.3.2 (RNA extraction); 8.3.4 (reverse transcription), and 8.3.5 (qPCR). ABCA1 (Taqman probe Hs01059118.m1 and Mm00442646.m1 for respectively HepG2 and Hepa1-6) and SR-BI (Taqman probe Hs00969821.m1 and Mm00450234.m1 for respectively HepG2 and Hepa1-6) expression was determined according to the manufacturer's protocol. The reference gene used is HPRT1 (Taqman probe: Mm00446968.m1) for Hepa1-6 and GAPDH (Taqman probe: Hs03929097.g1) for HepG2 cells.

Assay [3] has as its system LXR mRNA in mouse macrophages (J774). Kind of assay: LXR gene expression (real-time PCR) in J774 macrophages. Type of assay: cell-based. Particulars: Study P; 0.03 to 30 mM; 6 hours. As to the method:
The mRNA regulation of those genes expressing ABCA1, ABCG1 and SR-BI is linked to nuclear proteins as LXR, SREBP1 and SREBP2. […] Gene expression was assayed using the protocols described in Sections 8.3.2 (RNA extraction); 8.3.4 (reverse transcription), and 8.3.5 (qPCR). SREBP-1, SREBP-2 and LXR gene expression levels were determined with Taqman probe (Mm01138344.m1, Mm01306292.m1, Mm00443451.m1 respectively) according to the manufacturer's protocol. The reference gene used is HPRT1 (Taqman probe: Mm00446968.m1).
This study used β-cyclodextrin to examine the effect of β-cyclodextrin on LXR, SREBP1 and SREBP2 mRNA expression in J774 macrophages. J774 were seeded on 6 well plates (300,000 cells/well). β-cyclodextrin (0.03, 0.1, 0.3, 1, 3, 10 and 30 mM) was added for 6 hours on the macrophages and the RNA were extracted with the RiboPure™ kit according to the manufacturer's protocol. Gene expression was assayed using the protocols described in Sections 8.3.2 (RNA extraction); 8.3.4 (reverse transcription), and 8.3.5 (qPCR). SREBP-1, SREBP-2 and LXR gene expression were determined with Taqman probe (Mm01138344.m1, Mm01306292.m1, Mm00443451.m1 respectively) according to the manufacturer's protocol. The reference gene used is HPRT1 (Taqman probe: Mm00446968.m1).
For orientation: In qPCR the cycle at which signal appears reflects the starting amount.

Where [4] appears, read: mean of subjects, one month of induction therapy, 8 mg/kg.

On to “CER-001: engineered recombinant human apolipoprotein A-I HDL with sphingomyelin and DPPG; protein-to-phospholipid ratio 1:2.7, 97% Sph and 3% DPPG”, for which the “benefit on vessel wall thickness” value in assay [1] (after an additional 5 months of maintenance therapy) is “persistent and cumulative benefit”. For the same molecule, the “regression of carotid mean vessel wall thickness” value in assay [1] (homozygous ApoA-I deficiency patient) was −17%. In addition, in assay [1] (setting [4]), the “change of mean vessel wall thickness of the aorta” value is on record as −4.6% and the “change of mean vessel wall thickness of the carotid artery” value was −6.4%. For the same molecule, the “ABCA1 mRNA level” value in assay [2] was “No significant decrease”.

On to `OC[C@H]1O[C@@H]2O[C@H]3[C@H](O)[C@@H](O)[C@@H](O[C@H]4[C@H](O)[C@@H](O)[C@@H](O[C@H]5[C@H](O)[C@@H](O)[C@@H](O[C@H]6[C@H](O)[C@@H](O)[C@@H](O[C@H]7[C@H](O)[C@@H](O)[C@@H](O[C@H]8[C@H](O)[C@@H](O)[C@@H](O[C@H]1[C@H](O)[C@H]2O)O[C@@H]8CO)O[C@@H]7CO)O[C@@H]6CO)O[C@@H]5CO)O[C@@H]4CO)O[C@@H]3CO` [β-cyclodextrin, reference compound], for which, in assay [3], the “LXR mRNA” value is given as “No significant changes”.
